From PubChem BioAssay AID1259407 (Chemical Carcinogenesis Research Information System (CCRIS), 2018)
The source made the active and inactive calls. How the calls were made is not given here.

System: CCRIS mutagenicity, Ames/micronucleus/aberration tests
Assay: CCRIS mutagenicity studies
[1] = Test System: AMES SALMONELLA TYPHIMURIUM, Strain/Indicator: TA98, Metabolic Activation: NONE, Method: PREINCUBATION
[2] = Test System: AMES SALMONELLA TYPHIMURIUM, Strain/Indicator: TA100, Metabolic Activation: NONE, Method: PREINCUBATION
[3] = Test System: AMES SALMONELLA TYPHIMURIUM, Strain/Indicator: TA100, Metabolic Activation: RAT, LIVER, S-9, AROCLOR 1254, Method: PREINCUBATION
[4] = Test System: AMES SALMONELLA TYPHIMURIUM, Strain/Indicator: TA1535, Metabolic Activation: NONE, Method: PREINCUBATION
[5] = Test System: AMES SALMONELLA TYPHIMURIUM, Strain/Indicator: TA1537, Metabolic Activation: NONE, Method: PREINCUBATION
[6] = Test System: AMES SALMONELLA TYPHIMURIUM, Strain/Indicator: TA97, Metabolic Activation: HAMSTER, LIVER, S-9, AROCLOR 1254 (10 OR 30%), Method: PREINCUBATION
[7] = Test System: AMES SALMONELLA TYPHIMURIUM, Strain/Indicator: TA97, Metabolic Activation: NONE, Method: PREINCUBATION
[8] = Test System: AMES SALMONELLA TYPHIMURIUM, Strain/Indicator: TA97, Metabolic Activation: RAT, LIVER, S-9, AROCLOR 1254 (10 OR 30%), Method: PREINCUBATION
[9] = Test System: AMES SALMONELLA TYPHIMURIUM, Strain/Indicator: TA98, Metabolic Activation: HAMSTER, LIVER, S-9, AROCLOR 1254 (10 OR 30%), Method: PREINCUBATION
[10] = Test System: AMES SALMONELLA TYPHIMURIUM, Strain/Indicator: TA98, Metabolic Activation: NONE, Method: STANDARD PLATE
[11] = Test System: AMES SALMONELLA TYPHIMURIUM, Strain/Indicator: TA98, Metabolic Activation: RAT, LIVER, S-9, AROCLOR 1254 (10 OR 30%), Method: PREINCUBATION
[12] = Test System: AMES SALMONELLA TYPHIMURIUM, Strain/Indicator: TA98, Metabolic Activation: RAT, LIVER, S-9, AROCLOR 1254, Method: STANDARD PLATE
[13] = Test System: AMES SALMONELLA TYPHIMURIUM, Strain/Indicator: TA100, Metabolic Activation: HAMSTER, LIVER, S-9, AROCLOR 1254 (10 OR 30%), Method: PREINCUBATION
[14] = Test System: AMES SALMONELLA TYPHIMURIUM, Strain/Indicator: TA100, Metabolic Activation: RAT, LIVER, S-9, AROCLOR 1254 (10 OR 30%), Method: PREINCUBATION
[15] = Test System: AMES SALMONELLA TYPHIMURIUM, Strain/Indicator: TA100, Metabolic Activation: RAT, LIVER, S-9, AROCLOR 1254, Method: STANDARD PLATE
[16] = Test System: AMES SALMONELLA TYPHIMURIUM, Strain/Indicator: TA1535, Metabolic Activation: HAMSTER, LIVER, S-9, AROCLOR 1254 (10 OR 30%), Method: PREINCUBATION
[17] = Test System: AMES SALMONELLA TYPHIMURIUM, Strain/Indicator: TA1535, Metabolic Activation: RAT, LIVER, S-9, AROCLOR 1254 (10 OR 30%), Method: PREINCUBATION
[18] = End Point: IN VITRO CHROMOSOMAL ABERRATIONS, Test System: CHL CELLS, Metabolic Activation: RAT, LIVER, S-9, SODIUM PHENOBARBITAL AND 5,6-BENZOFLAVONE

Which results are given for `CCN(CC)c1ccc2c(C)cc(=O)oc2c1`?
mutagenic call (Test System: AMES SALMONELLA TYPHIMURIUM, Strain/Indicator: TA98, Metabolic Activation: HAMSTER, LIVER, S-9, AROCLOR 1254, Method: PREINCUBATION): inactive; negative; mutagenic call [1]: inactive; negative; mutagenic call (Test System: AMES SALMONELLA TYPHIMURIUM, Strain/Indicator: TA98, Metabolic Activation: RAT, LIVER, S-9, AROCLOR 1254, Method: PREINCUBATION): inactive; negative; mutagenic call (Test System: AMES SALMONELLA TYPHIMURIUM, Strain/Indicator: TA100, Metabolic Activation: HAMSTER, LIVER, S-9, AROCLOR 1254, Method: PREINCUBATION): inactive; negative; mutagenic call [2]: inactive; negative; mutagenic call [3]: inactive; negative; mutagenic call (Test System: AMES SALMONELLA TYPHIMURIUM, Strain/Indicator: TA1535, Metabolic Activation: HAMSTER, LIVER, S-9, AROCLOR 1254, Method: PREINCUBATION): inactive; negative; mutagenic call [4]: inactive; negative; mutagenic call (Test System: AMES SALMONELLA TYPHIMURIUM, Strain/Indicator: TA1535, Metabolic Activation: RAT, LIVER, S-9, AROCLOR 1254, Method: PREINCUBATION): inactive; negative; mutagenic call (Test System: AMES SALMONELLA TYPHIMURIUM, Strain/Indicator: TA1537, Metabolic Activation: HAMSTER, LIVER, S-9, AROCLOR 1254, Method: PREINCUBATION): inactive; negative; mutagenic call [5]: inactive; negative; mutagenic call (Test System: AMES SALMONELLA TYPHIMURIUM, Strain/Indicator: TA1537, Metabolic Activation: RAT, LIVER, S-9, AROCLOR 1254, Method: PREINCUBATION): inactive; negative

With `CN1C(=O)CN=C(c2ccccc2)c2cc(Cl)ccc21` as the compound, how does the mutagenic call (End Point: IN VITRO MICRONUCLEUS, Test System: V79 CELLS, Metabolic Activation: NONE) read?
The mutagenic call was “active; positive”.

What about the mutagenic call (End Point: IN VIVO CHROMOSOMAL ABERRATIONS, Test System: PERIPHERAL BLOOD LYMPHOCYTES, Species: HUMAN, Strain/Sex: MALE, FEMALE, Route: IV) of the same compound?
Its mutagenic call is “inactive; negative”.

What about the mutagenic call [6] of the same compound?
Its mutagenic call is “inactive; negative”.

What about the mutagenic call [7] of the same compound?
Its mutagenic call is “inactive; negative”.

What about the mutagenic call [8] of the same compound?
The mutagenic call was “inactive; negative”.

What about the mutagenic call [9] of the same compound?
Its mutagenic call is “inactive; negative”.

And the mutagenic call [1]?
Its mutagenic call is “inactive; negative”.

And the mutagenic call [10]?
The mutagenic call was “inactive; negative”.

And the mutagenic call [11]?
The mutagenic call was “inactive; negative”.

And the mutagenic call [12]?
The mutagenic call was “inactive; negative”.

And the mutagenic call [13]?
The mutagenic call was “inactive; negative”.

What about the mutagenic call [2] of the same compound?
The mutagenic call was “inactive; negative”.

What about the mutagenic call (Test System: AMES SALMONELLA TYPHIMURIUM, Strain/Indicator: TA100, Metabolic Activation: NONE, Method: STANDARD PLATE) of the same compound?
The mutagenic call was “inactive; negative”.

What about the mutagenic call [14] of the same compound?
The mutagenic call was “inactive; negative”.

And the mutagenic call [15]?
Its mutagenic call is “inactive; negative”.

What about the mutagenic call [16] of the same compound?
The mutagenic call was “inactive; negative”.

And the mutagenic call [4]?
The mutagenic call was “inactive; negative”.

What about the mutagenic call (Test System: AMES SALMONELLA TYPHIMURIUM, Strain/Indicator: TA1535, Metabolic Activation: NONE, Method: STANDARD PLATE) of the same compound?
Its mutagenic call is “inactive; negative”.

And the mutagenic call [17]?
Its mutagenic call is “inactive; negative”.

And the mutagenic call (Test System: AMES SALMONELLA TYPHIMURIUM, Strain/Indicator: TA1535, Metabolic Activation: RAT, LIVER, S-9, AROCLOR 1254, Method: STANDARD PLATE)?
Its mutagenic call is “inactive; negative”.

What about the mutagenic call (Test System: AMES SALMONELLA TYPHIMURIUM, Strain/Indicator: TA1537, Metabolic Activation: HAMSTER, LIVER, S-9, AROCLOR 1254 (30%), Method: PREINCUBATION) of the same compound?
The mutagenic call was “inactive; negative”.

What about the mutagenic call [5] of the same compound?
Its mutagenic call is “inactive; negative”.

What about the mutagenic call (Test System: AMES SALMONELLA TYPHIMURIUM, Strain/Indicator: TA1537, Metabolic Activation: NONE, Method: STANDARD PLATE) of the same compound?
Its mutagenic call is “inactive; negative”.

What about the mutagenic call (Test System: AMES SALMONELLA TYPHIMURIUM, Strain/Indicator: TA1537, Metabolic Activation: RAT, LIVER, S-9, AROCLOR 1254 (30%), Method: PREINCUBATION) of the same compound?
The mutagenic call was “inactive; negative”.

And the mutagenic call (Test System: AMES SALMONELLA TYPHIMURIUM, Strain/Indicator: TA1537, Metabolic Activation: RAT, LIVER, S-9, AROCLOR 1254, Method: STANDARD PLATE)?
The mutagenic call was “inactive; negative”.

With `O=[N+]([O-])c1cccc(-c2ccc(O)c([N+](=O)[O-])c2)c1` as the compound, how does the mutagenic call [1] read?
Its mutagenic call is “active; positive”.

`c1ccc2c(c1)ccc1ncccc12` was tested. Which mutagenic call [18] did it give?
The mutagenic call was “active; positive (structural changes)”.

And the mutagenic call (End Point: IN VITRO MICRONUCLEUS, Test System: CHL/IU CELLS, Metabolic Activation: NONE)?
Its mutagenic call is “active; positive”.

And the mutagenic call [12]?
The mutagenic call was “active; positive”.

And the mutagenic call [3]?
Its mutagenic call is “active; positive”.

And the mutagenic call [15]?
Its mutagenic call is “active; positive”.

And the mutagenic call (Test System: AMES SALMONELLA TYPHIMURIUM, Strain/Indicator: TA100, Metabolic Activation: RAT, LIVER, S-9, PHENOBARBITAL AND 5,6-BENZOFLAVONE, Method: PREINCUBATION)?
Its mutagenic call is “active; positive”.

With `Clc1nncc2ccncc12` as the compound, how does the mutagenic call [1] read?
Its mutagenic call is “inactive; negative”.

And the mutagenic call (Test System: AMES SALMONELLA TYPHIMURIUM, Strain/Indicator: TA98, Metabolic Activation: RAT, LIVER, S-9, PCB, Method: PREINCUBATION)?
Its mutagenic call is “inactive; negative”.

What about the mutagenic call [2] of the same compound?
The mutagenic call was “inactive; negative”.

What about the mutagenic call (Test System: AMES SALMONELLA TYPHIMURIUM, Strain/Indicator: TA100, Metabolic Activation: RAT, LIVER, S-9, PCB, Method: PREINCUBATION) of the same compound?
The mutagenic call was “inactive; negative”.

For `CCCCCCc1ccc(-c2ccc(C#N)cc2)cc1`, which mutagenic call [6] is on record?
The mutagenic call was “inactive; negative”.

What about the mutagenic call [7] of the same compound?
The mutagenic call was “inactive; negative”.

What about the mutagenic call [8] of the same compound?
Its mutagenic call is “inactive; negative”.

And the mutagenic call [9]?
The mutagenic call was “inactive; negative”.

What about the mutagenic call [1] of the same compound?
The mutagenic call was “inactive; negative”.

What about the mutagenic call [11] of the same compound?
Its mutagenic call is “inactive; negative”.

And the mutagenic call [13]?
The mutagenic call was “inactive; negative”.

And the mutagenic call [2]?
Its mutagenic call is “inactive; negative”.

And the mutagenic call [14]?
The mutagenic call was “inactive; negative”.

What about the mutagenic call [16] of the same compound?
The mutagenic call was “inactive; negative”.

What about the mutagenic call [4] of the same compound?
The mutagenic call was “inactive; negative”.

What about the mutagenic call [17] of the same compound?
The mutagenic call was “inactive; negative”.

What about the mutagenic call (Test System: AMES SALMONELLA TYPHIMURIUM, Strain/Indicator: TA1537, Metabolic Activation: HAMSTER, LIVER, S-9, AROCLOR 1254 (10 OR 30%), Method: PREINCUBATION) of the same compound?
The mutagenic call was “inactive; negative”.

And the mutagenic call [5]?
The mutagenic call was “inactive; negative”.

And the mutagenic call (Test System: AMES SALMONELLA TYPHIMURIUM, Strain/Indicator: TA1537, Metabolic Activation: RAT, LIVER, S-9, AROCLOR 1254 (10 OR 30%), Method: PREINCUBATION)?
Its mutagenic call is “inactive; negative”.

How did the mutagenic call [10] turn out when `O=[N+]([O-])c1ccc2ccc3cccc4c(O)cc1c2c34` was run?
The mutagenic call was “active; positive”.

And the mutagenic call [12]?
Its mutagenic call is “active; positive”.

With `O=c1cccc2c1ccc1[nH]c3ccc4ccccc4c3cc12` as the compound, how does the mutagenic call (Test System: AMES SALMONELLA TYPHIMURIUM, Strain/Indicator: TA100, Metabolic Activation: GUINEA PIG, LIVER, S-9, 3-METHYLCHOLANTHRENE, Method: STANDARD PLATE) read?
The mutagenic call was “inactive; negative”.

And the mutagenic call (Test System: CHINESE HAMSTER V-79, Strain/Indicator: V-79/6-THIOGUANINE, Metabolic Activation: GUINEA PIG, LIVER, S-9, 3-METHYLCHOLANTHRENE)?
Its mutagenic call is “inactive; negative”.

Which mutagenic call [18] does the source give for `O=[N+]([O-])c1cccc(Cl)c1F` here?
Its mutagenic call is “active; positive (structural changes)”.

How did the mutagenic call (Test System: AMES SALMONELLA TYPHIMURIUM, Strain/Indicator: TA1535, Metabolic Activation: NONE) turn out when `CCCCN=NC(C)(C)OO` was run?
Its mutagenic call is “active; positive”.

What about the mutagenic call (Test System: E. COLI, Strain/Indicator: WP2 (HCR-), Metabolic Activation: NONE) of the same compound?
Its mutagenic call is “active; positive”.
